The record followed here is US20250270549A1, “MSI2 AS A THERAPEUTIC TARGET FOR THE TREATMENT OF MYOTONIC DYSTROPHY” (UNIVERSITAT DE VALÈNCIA, priority 2021, published 2025).

Common to all, as to type: cell-based, human
One assay concerns miR-7. Description: miR-7 quantification by RT-qPCR in MD1 cells. The protocol:
TDMs were cultured as previously described^1. After 4 days in differentiation medium (MDM), cells were transfected with a combination of two siRNAs (SEQ ID NO: 40 and 43) targeting MSI2 transcripts (final concentration 100 nM) using Lipofectamine RNAiMAX transfection reagent (Invitrogen, Madrid, Spain)) following the manufacturer's recommendations. After 48 h, the medium containing the siRNAs was replaced by fresh MDM. 24 h later, cells were collected. As a control, the same protocol was performed using 100 nM of a siRNA with a scrambled sequence (Cat #4390843 for negative control). Gapmers against MSI2 and agomiR-107 were transfected following the same protocol using two different concentrations, 30 and 150 nM in the case of Gapmers and 100 and 300 nM in the case of agomiR-107. To treat cells with the small molecule Ro-08-2750 (Tocris Cat. No. 2272, Bristol, UK)), cells were cultured as before. Briefly, after 96 h in MDM, the medium was supplemented with Ro-08-2750 at a final concentration of 10 μM (0.8% DMSO) or with the vehicle, DMSO 0.8%, for 48 h. Then cells were collected for further analyses.
All the procedures were performed as previously described^1.

The next assay deals with immortalized myoblasts. Briefly: Fusion index of immortalized DM1 myoblasts (anti-Desmin immunofluorescence). The following applies: 10 μM for the last 48 h. The protocol:
Immortalized myoblasts were cultured in a growth medium consisting of a mix of 199:DMEM (1:4 ratio; Life Technologies) supplemented with 20% FBS (Life Technologies), 50 μg/ml gentamycin (Life technologies), 25 μg/ml fetuin, 0.5 ng/ml bFGF, 5 ng/ml EGF and 0.2 μg/ml dexamethasone (Sigma-Aldrich). Myogenic differentiation is induced by switching confluent cell cultures to DMEM supplemented with 5 μg/ml insulin for myoblasts. […] In the case of fusion index determinations at 7, 10, and 14 days, the compound was added for the last 48 h.
Desmin immunostaining and fusion index and diameter determination were performed as previously described^3. For MSI2 immunodetection, 3.5×10^4 fibroblasts/well were seeded in 24 well plates. After 7 days of differentiation into myotubes, cells were fixed with 4% paraformaldehyde (PFA) for 15 min. After 3 washes with PBS-T (0.1%×-TritonX-100 in PBS 1×) cells were blocked (PBS-T, 1% BSA, 5% normal goat serum) for 1 h and incubated with rabbit anti-MSI2 antibody (1:100, Abcam, EP1305Y, Cambridge, UK) in blocking buffer for 48 h at 4° C. After three washes with PBS-T, cells were incubated for 1 h with goat anti-rabbit-FITC IgG (1:200, Sigma-Aldrich, St. Louis, Missouri) in blocking buffer. Finally, cells were washed thrice with PBS 1× and were counterstained and mounted with VECTASHIELD® mounting medium containing DAPI (Vector Laboratories, London, UK) to detect the nuclei. Images were taken in a confocal microscope LSM800 (Zeiss) at 400× magnification.

The test system of assay [1] is UPS system and muscle degradation genes. Briefly: qRT-PCR of genes involved in catabolic pathways leading to muscle degradation. Particulars: 10 μM; immortalized and primary DM1 myoblasts. As to the method:
FIG. 13. MSI2 inhibition in DM1 myoblasts improves pathological phenotypes. (A) MSI2 quantification by western blot and representative blots in control (orange) and DM1 myoblasts treated with vehicle 0.8% DMSO (gray) or 10 μM Ro-08-2750 (red) during the last 48 h of 7-day differentiated myotubes; GAPDH expression was used as an endogenous control. (B) Quantification by qRT-PCR of MSI2 and its direct targets miR-7, P21, and TGFBR1 in the same conditions as those described in (A). (C) Quantification by qRT-PCR of the relative expression of genes involved in catabolic pathways leading to muscle degradation in DM1 treated with vehicle (gray dashed line) and control myoblasts (orange) or DM1 cells treated with compound (red). […] (G) Quantification of myogenic fusion index of the conditions represented in (D)-(F) at 7, 10, and 14 days of differentiation (n=10-15 images). (K) Quantification of the number of LC3 puncta per square micrometer. […] Quantification by western blot of (L) ATG4A and (M) ATG7. Representative blots used for quantification are shown on the side of the bar graphs. […]
FIG. 14. […] (A and B) Quantification by qRT-PCR of the indicated genes in control primary myoblasts (line CNT-10, orange dashed line) and two DM1 lines, DM1-14 and DM1-16, treated with vehicle (0.8% DMSO; gray) or 10 μM Ro-08-2750 (red) for 48 h in 7-day differentiation cultures. […]
For orientation: Quantitative PCR measures a nucleic acid by following its amplification.

As to `Cc1cc2nc3c(=O)[nH]c(=O)nc-3n(C)c2cc1C=O` [Ro 08-2750, 2,3,4,10-Tetrahydro-7,10-dimethyl-2,4-dioxobenzo[g]pteridine-8-carboxaldehyde], in the assay with miR-7 (MD1 TDMs, Ro-08-2750 at 10 μM or the agomiR), the miR-7 levels entry is on record as “significant derepression”. Also, the “FC miR-7 expression respect to MD1, Low concentration” value in the assay on miR-7 (MD1 cells, ASO 30 nM, Ro 08-2750 10 μM, siRNA 100 nM, * significant) was found to be 2.52 fold. Also, the entries for the “fusion index improved compared to DM1 cells treated with vehicle only” value in the assay with immortalized myoblasts (day 7 of differentiation), in the assay with immortalized myoblasts (day 10 of differentiation) and with immortalized myoblasts (day 14 of differentiation) were 160%, 77% and 95%, respectively. Besides, the “expression of UPS system and muscle degradation genes” value in assay [1] is “significantly rescued”.
